Columns and labels:
[1] = target: T1, Prostaglandin G/H synthase 2 (Homo sapiens, UniProt P35354); assay type: tissue-based, Blood
T1 sequence (P35354 whole entry): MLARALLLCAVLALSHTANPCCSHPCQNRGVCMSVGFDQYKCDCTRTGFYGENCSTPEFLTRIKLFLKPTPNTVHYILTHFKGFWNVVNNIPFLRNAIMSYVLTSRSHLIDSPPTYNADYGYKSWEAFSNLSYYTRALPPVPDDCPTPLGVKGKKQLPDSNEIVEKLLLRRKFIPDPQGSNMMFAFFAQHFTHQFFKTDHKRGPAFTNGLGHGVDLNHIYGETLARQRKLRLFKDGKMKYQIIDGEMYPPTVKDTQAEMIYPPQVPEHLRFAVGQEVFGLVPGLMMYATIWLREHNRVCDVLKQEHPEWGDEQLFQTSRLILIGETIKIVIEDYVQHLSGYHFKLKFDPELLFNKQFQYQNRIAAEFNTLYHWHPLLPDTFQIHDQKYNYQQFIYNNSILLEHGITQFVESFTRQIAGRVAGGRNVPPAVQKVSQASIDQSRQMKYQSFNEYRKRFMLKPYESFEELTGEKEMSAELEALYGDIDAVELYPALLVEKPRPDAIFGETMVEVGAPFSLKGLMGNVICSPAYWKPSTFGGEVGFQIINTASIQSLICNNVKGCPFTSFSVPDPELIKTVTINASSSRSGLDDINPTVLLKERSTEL
Description: In vitro inhibitory concentration against Prostaglandin G/H synthase 2 in human whole blood assay

[2] = target: Prostaglandin G/H synthase 1 (Homo sapiens, UniProt P23219); test: In vitro inhibitory concentration against Prostaglandin G/H synthase 1 in human whole blood assay; assay type: tissue-based
Sequence of Prostaglandin G/H synthase 1 (P23219 whole entry): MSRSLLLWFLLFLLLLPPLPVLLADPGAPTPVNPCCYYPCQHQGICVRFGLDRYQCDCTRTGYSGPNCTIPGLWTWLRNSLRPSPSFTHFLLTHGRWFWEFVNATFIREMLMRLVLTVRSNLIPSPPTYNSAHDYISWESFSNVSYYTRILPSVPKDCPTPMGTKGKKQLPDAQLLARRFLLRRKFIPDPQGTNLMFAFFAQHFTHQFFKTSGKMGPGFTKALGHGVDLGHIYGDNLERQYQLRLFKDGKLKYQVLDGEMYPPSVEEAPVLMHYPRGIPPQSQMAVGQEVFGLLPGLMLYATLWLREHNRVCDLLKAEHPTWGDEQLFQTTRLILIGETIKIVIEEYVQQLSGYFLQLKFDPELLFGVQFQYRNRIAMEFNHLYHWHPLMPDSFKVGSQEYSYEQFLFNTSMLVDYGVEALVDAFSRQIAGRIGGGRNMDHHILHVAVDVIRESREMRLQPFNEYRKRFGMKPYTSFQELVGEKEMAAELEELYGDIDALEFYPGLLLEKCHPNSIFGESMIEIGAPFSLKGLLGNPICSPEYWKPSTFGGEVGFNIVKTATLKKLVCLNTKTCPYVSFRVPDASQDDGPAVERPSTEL

| IC50 [1] [µM] | IC50 [2] [µM] | Compound |
| --- | --- | --- |
| > 100 | > 100 | Cc1cc(C)c(S(N)(=O)=O)c(C)c1-c1noc(C)c1-c1ccc(S(N)(=O)=O)cc1 |
| > 100 | > 100 | Cc1onc(-c2ccc(Cl)o2)c1-c1ccc(S(N)(=O)=O)cc1 |
| > 100 | > 100 | COc1cc(OC)c(-c2noc(C)c2-c2ccccc2)c(OC)c1Cl |
| > 100 | – | Cc1onc(-c2ccc(Cl)o2)c1-c1ccccc1 |
| > 100 | > 100 | Cc1cc(C)c(S(N)(=O)=O)c(C)c1-c1noc(C)c1-c1ccccc1 |
| > 100 | > 100 | Cc1cc(C)c(-c2noc(C)c2-c2ccccc2)c(C)c1 |
| > 100 | > 100 | COc1cc(OC)c(-c2noc(C)c2-c2ccc(S(N)(=O)=O)cc2)c(OC)c1Cl |
| > 100 | > 100 | COc1cc(OC)c(-c2noc(C)c2-c2ccccc2)c(OC)c1 |

Reference: ChEMBL document CHEMBL1138763 (J Med Chem, 2004)
